ChEMBL document CHEMBL1126463, “Thiol-induced crosslinking of human blood proteins: implications for tumor immunity” (Bioorg Med Chem Lett, 1992)

Assay: Effect of compound on gelation time of human serum induced by dithiothreitol (DTT)
Assay type: ADME

| Structure (SMILES) | Inhibitory concentration [mM] |
| --- | --- |
| O=C1OC(C(O)CO)C(=O)C1=O (stereo not drawn) [DEHYDROASCORBIC ACID] | 20 |
| O=C1O[C@H]([C@@H](O)CO)C(O)=C1O [ASCORBIC ACID] | > 100 |
| NC(CSSCC(N)C(=O)O)C(=O)O (stereo not drawn) | 20 |
| N[C@@H](CS)C(=O)O [CYSTEINE] | > 200 |
| CC(=O)C=O [METHYLGLYOXAL] | 20 |
| C=CCSCC=C [DIALLYL SULFIDE] | > 200 |
| C=CCSS/C=C/C[S+]([O-])CC=C (stereo not drawn) [AJOENE] | 10 |
| C=CCSSCC=C [DIALLYLDISULFIDE] | 20 |
